4 compounds from patent US9295722B2, “Bacterial glycolipid activation of CD1d-restricted NKT cells” (priority 2005, dated 2016) can be followed below.

Type in all cases: cell-based
Test [1] deals with mouse NKT cells. Briefly: mouse CD1d tetramer-sorted NKT cells co-cultured with bone marrow derived DC, IFN-γ ELISA. To be noted: co-cultured with CD1+/− or CD1−/− DC; 48 hrs. The method, then: (§1) Bacterial strains Sphingomonas capsulata (ATCC 14666) and Salmonella typhimurium R71 were grown in Mueller-Hinton Agar. Ehrlichia muris were prepared as described by Ismail N et al., J. Immunol. 172, 1786-1800 (2004), incorporated herein by reference. Bacteria were heat killed by 2-hour exposure to 74° C. and 2.5-5×10^6 cfu equivalent/well were used for in vitro stimulation.
Stimulation assays were performed with whole spleen cells (5×10^5 per 200 μl well) or with purified T cells and antigen presenting cells. […]
(§2) NKT cells were stimulated with heat-killed bacteria as indicated above for 48 hrs in 96 well round bottom plates in RPMI 1640 (Biofluids) supplemented with glutamine, antibiotics, 5×10^−5 M 2-ME and 10% FCS (mouse studies) or 5% AB serum (human studies). Concentrations of mouse and human IFN-γ. in the supernatant were measured at 48 hours using the respective ELISA kits (BD Bioscience, lower detection limit of 12.5 pg/ml).
Whole spleen cells co-cultured with DC of genotype MyD88^−/−, Trif^lps2/lps2 and MyD88^−/−Trif^lps2/lps2 (lacking one or the two adaptors MyD88 and TRIF for TLR signaling) or CD1^−/− were stimulated for 48 hours with 5×10^6 heat killed Salmonella, Sphingomonas or Ehrlichia. Concentrations of mouse and human IFN-γ. in the supernatant were measured at 48 hours using the respective ELISA kits (BD Bioscience, lower detection limit of 12.5 pg/ml).
Background: An ELISA detects its analyte on a solid surface through an enzyme-linked reagent.

Test [2] concerns human NKT cells. Description: human NKT cells co-cultured with PBMC-derived DC, IFN-γ ELISA. To be noted: blocking with 1 μg/mL anti-CD1d antibodies or control IgG1. How it is done:
as §1
Stimulation assays were performed with whole spleen cells (5×10^5 per 200 μl well) or with purified T cells and antigen presenting cells. T cell populations used in the assays comprised sorted CD1d-Gal-Cer+ mouse spleen cells (5×10^4 per 200 μl well), human peripheral blood lymphocytes (PBL) (5×10^5 per 200 μl well) (obtained after Ficoll centrifugation of heparinized blood) or human NKT cell lines (2.5×10^5 per 200 μl well). […]
as §2

Test [3] has as its system human Vα24-Jα18 NKT cells. Briefly: human Vα24-Jα18 NKT cells co-cultured with DC pulsed with synthetic glycolipid. To be noted: for IFN-γ secretion: DC pulsed with 0.001 to 1000 ng/mL glycolipid, 48 hours. How it is done: (§3) Stimulation assays were performed with whole spleen cells (5×10^5 per 200 μl well) or with purified T cells and antigen presenting cells. T cell populations used in the assays comprised sorted CD1d-Gal-Cer+ mouse spleen cells (5×10^4 per 200 μl well), human peripheral blood lymphocytes (PBL) (5×10^5 per 200 μl well) (obtained after Ficoll centrifugation of heparinized blood) or human NKT cell lines (2.5×10^5 per 200 μl well). Human Vα24 NKT cells were derived from PBL stimulated with αGal-Cer and were maintained by repeated rounds of stimulation with PHA and IL-2 in the presence of irradiated PBMC and EBV transformed B cells in vitro. Antigen presenting cells were dendritic cells that were derived from bone marrow, stimulated with GMCSF/IL-4 (2 ng/mL and 5 ng/mL, Biosource) and cultured at 2.5×10^5 per 200 μl well for mouse assays, and irradiated allogeneic human PBMC fresh or cultured for 5 days with recombinant human GMCSF/IL-4, ([…] of each cytokine, R&D Systems) (2×10^5 per 200 μl well) for human assays. Cells were washed twice and starved for 6 hours in medium alone before addition to the stimulation experiments.
as §2
(§4) The immunological properties of the above compounds in NKT cells were measured. Human Vα24-Jα18 NKT cells and fresh purified mouse NKT cells were co-cultured with DC pulsed with αGal-Cer or synthetic glycolipid at concentrations ranging from 0.001 to 1000 ng/mL. IFN-γ production was measured at 48 hours as described above.

Test [4] deals with NKT cells. Description: activation of NKT cells in vitro by synthetic glycolipids. The text has this: Activation of NKT cells may be measured in vitro or ex vivo by any suitable method. An example of an in vitro test permitting evaluation of NKT cell activation is co-culturing NKT cells with antigen presenting cells (APC), such as dendritic cells (DC), in the presence of a bacterial glycolipid activator or putative activator, and subsequently assaying for IFN-γ or other secreted cytokines in the supernatant. Alternatively, activation of NKT cells can be measured ex vivo by administering a bacterial glycolipid antigen to a subject or by administering CD1d^+ antigen presenting cells after ex vivo contact with bacterial glycolipids to a subject. The NKT cells from these subjects can be isolated by, e.g., CD1d-tetramer staining and gating via flow cytometry, and subsequently assayed for surface CD69 (early T-cell activation antigen) and/or intracellular IFN-γ by suitable methods.
Some representative examples of suitable bacterial glycolipids for complexing with CD1d molecules and activating NKT cells are depicted in FIG. 5. […] The remaining compounds depicted in FIG. 5 were rationally designed based on the following features determined to be common among glycolipids capable of activating NKT cells: 1) an alpha-type glycosidic linkage and 2) oxidation at the 6-position on the carbohydrate moiety of the glycolipid.

The subject of test [5] is mouse NKT cells. Briefly: fresh purified mouse NKT cells co-cultured with DC pulsed with synthetic glycolipid. To be noted: for IFN-γ secretion: DC pulsed with 0.001 to 1000 ng/mL glycolipid, 48 hours. The method, then: as §3, §2, §4
Test [6] relates to mouse NKT cells. Description: CD1d-glycolipid tetramer staining of mouse spleen cells. How it is done:
(§5) At 6 days post stimulation, CD1d-αGal-Cer, CFSE and αB220 (BD Pharmingen) labeling and staining procedures were performed and cells were analyzed by FACS. To generate CD1d-αGal-Cer tetramers, a mixture of 5 μl of αGal-Cer (from 1 mg/ml stock solution in DMSO), 10 μl of PBS 0.5% Tween 20, 10 μl of biotinylated CD1d (1 mg/ml), and 75 μl of PBS was incubated at 37° C. for 1 hr, and lipid-loaded CD1d was purified by centrifugation dialysis and complexed with streptavidin-APC. (Benlagha K. et al., J. Exp. Med. 191, 1895-1903 (2000).) Cells were analyzed on a FACSCalibur (BD Biosciences) with CellQuest software.
(§6) CD1d tetramers were prepared as described in Example 1 using synthetic glycolipids PBS 30, PBS 59 and PBS 50 and αGal-Cer, and were used to stain human NKT cells and mouse spleen cells.

In test [7] the test system is human NKT cells. Description: CD1d-glycolipid tetramer staining of human NKT cells. The method, then: as §5, §6

Regarding `CCCCCCCCCCCCCCCCCCCCCCCCCC(=O)N[C@@H](CO[C@H]1O[C@H](CO)[C@H](O)[C@H](O)[C@H]1O)[C@H](O)[C@H](O)CCCCCCCCCCCCCC` [αGal-Cer, α-galactosylceramide], in test [1], the “IFN-γ secretion by mouse NKT cells” value is reported as “secreted IFN-γ in a CD1d-dependent manner”. Besides, the “IFN-γ secretion by human NKT cells” value in test [2] is reported as “CD1d-dependent IFN-γ secretion”.

As for α-galacturonosylceramide [PBS 59], in test [3], the NKT cell proliferation result was “strongly activated” and the IFN-γ secretion entry is on record as “strongly activated”. Moreover, the “activation of NKT cells” value in test [4] is on record as “found to activate NKT cells”. Further, in test [5], the NKT cell proliferation entry is listed as “strongly activated” and the IFN-γ secretion result is listed as “strongly activated”.

For α-glucuronosylceramide [PBS 30], the “mouse NKT cells stained by CD1d-glycolipid tetramers” value in test [6] was approximately 25%. For the same compound, in test [3], the NKT cell proliferation entry is on record as “strongly activated” and the IFN-γ secretion result is “strongly activated”. The “activation of NKT cells” value in test [4] is listed as “found to activate NKT cells”. In test [7], the “human NKT cells stained by CD1d-glycolipid tetramers” value is reported as “all”. Further, in test [5], the NKT cell proliferation result is given as “strongly activated” and the IFN-γ secretion result is recorded as “strongly activated”.

For the compound “β-glucuronosylceramide [PBS 50, reference compound]”, the NKT cell proliferation entry in test [3] and in test [5] was “did not” each time. In addition, the IFN-γ secretion entry in test [3] and in test [5] was “did not” each time. In addition, the “activation of NKT cells” value in test [4] is reported as “do not activate NKT cells”.
